Experimental data published in ChEMBL document CHEMBL6134890, “Terminally Symmetric β-Turn Peptides for Multidrug-Resistant Bacterial Infections” (J Med Chem, 2025).
Converted amounts (≈) assume the structure as drawn. The source made the active and inactive calls. The calls are words filed in the database; no cut-off is given here.

Tests used:
Staphylococcus aureus [1] = experiment: Antimicrobial activity against Staphylococcus aureus ATCC 25923 assessed as reduction in bacterial growth by broth dilution method; type: functional
Staphylococcus aureus [2] = experiment: Antimicrobial activity against multi-drug resistant Staphylococcus aureus assessed as reduction in bacterial growth by broth dilution method; type: functional
[3] = test system: Staphylococcus epidermidis; experiment: Antimicrobial activity against multi-drug resistant Staphylococcus epidermidis assessed as reduction in bacterial growth by broth dilution method; type: functional
Enterococcus faecalis = experiment: Antimicrobial activity against multi-drug resistant Enterococcus faecalis assessed as reduction in bacterial growth by broth dilution method; type: functional
Escherichia coli [4] = experiment: Antimicrobial activity against Escherichia coli ATCC 25922 assessed as reduction in bacterial growth by broth dilution method; type: functional
Escherichia coli [5] = experiment: Antimicrobial activity against multi-drug resistant Escherichia coli assessed as reduction in bacterial growth by broth dilution method; type: functional
Klebsiella pneumoniae = experiment: Antimicrobial activity against multi-drug resistant Klebsiella pneumoniae assessed as reduction in bacterial growth by broth dilution method; type: functional
Acinetobacter baumannii = experiment: Antimicrobial activity against multi-drug resistant Acinetobacter baumannii assessed as reduction in bacterial growth by broth dilution method; type: functional
[6] = Hemolytic activity in human Red blood cell assessed as hemolysis incubated for 1 hrs by microplate reader based analysis; type: toxicity; settings: erythrocyte
Escherichia coli [7] = experiment: Antimicrobial activity against multi-drug resistant Escherichia coli assessed as fold increase in MIC in presence of NaCl; type: functional
Escherichia coli [8] = experiment: Antimicrobial activity against multi-drug resistant Escherichia coli assessed as fold increase in MIC in presence of KCl; type: functional
Escherichia coli [9] = experiment: Antimicrobial activity against multi-drug resistant Escherichia coli assessed as fold increase in MIC in presence of FeCl3; type: functional
Staphylococcus aureus [10] = experiment: Antimicrobial activity against multi-drug resistant Staphylococcus aureus assessed as reduction in bacterial growth measured after 1 to 6 hrs in 25% plasma; type: functional, organism-based; settings: time 1-6 hrs
[11] = Half life of the compound in 25% plasma; type: ADME, cell-free
Escherichia coli [12] = experiment: Antimicrobial activity against multi-drug resistant Escherichia coli assessed as reduction in bacterial growth at 2 times MIC measured after 1 hrs in presence of trypsin by microplate reader based analysis; type: functional, organism-based
Escherichia coli [13] = experiment: Antimicrobial activity against multi-drug resistant Escherichia coli assessed as reduction in bacterial growth at 2 times MIC measured after 1 hrs in presence of chymotrypsin by microplate reader based analysis; type: functional, organism-based
Staphylococcus aureus [14] = experiment: Antimicrobial activity against multi-drug resistant Staphylococcus aureus assessed as reduction in bacterial growth at 2 times MIC measured after 1 hrs in presence of trypsin by microplate reader based analysis; type: functional, organism-based
Staphylococcus aureus [15] = experiment: Antimicrobial activity against multi-drug resistant Staphylococcus aureus assessed as reduction in bacterial growth at 2 times MIC measured after 1 hrs in presence of chymotrypsin by microplate reader based analysis; type: functional, organism-based
Staphylococcus aureus [16] = experiment: Antibacterial activity against Staphylococcus aureus ATCC 25923 at sub-inhibitory concentration measured after 15 passages for 18 hrs; type: functional; set-up: scale not given: the % may be the effect or the level left
Staphylococcus aureus [17] = experiment: Bactericidal activity against multi-drug resistant Staphylococcus aureus assessed as eradication of bacterial growth at 2 times MIC by time-kill kinetic assay; type: functional, organism-based; settings: time 120-720 min
Escherichia coli [18] = experiment: Bactericidal activity against multi-drug resistant Escherichia coli assessed as eradication of bacterial growth at 2 times MIC by time-kill kinetic assay; type: functional, organism-based; settings: time 120-720 min
Staphylococcus aureus [19] = experiment: Bactericidal activity against multi-drug resistant Staphylococcus aureus assessed as eradication of bacterial growth at 2 times MIC measured after 6 hrs by time-kill kinetic assay relative to control; type: functional
Escherichia coli [20] = experiment: Bactericidal activity against multi-drug resistant Escherichia coli assessed as eradication of bacterial growth at 2 times MIC measured after 6 hrs by time-kill kinetic assay relative to control; type: functional
Cell membrane [21] = experiment: Disruption of cell membrane in multi-drug resistant Staphylococcus aureus assessed as appearance of wrinkled cell surface at 2 times MIC measured for 120 mins by transmission electron microscopy analysis; type: subcellular
Cell membrane [22] = experiment: Disruption of cell membrane in multi-drug resistant Staphylococcus aureus assessed as appearance of ruptured cell surface at 2 times MIC measured for 120 mins by transmission electron microscopy analysis; type: subcellular
Cell membrane [23] = experiment: Disruption of cell membrane in multi-drug resistant Escherichia coli assessed as appearance of wrinkled cell surface at 2 times MIC measured for 120 mins by transmission electron microscopy analysis; type: subcellular
Cell membrane [24] = experiment: Disruption of cell membrane in multi-drug resistant Escherichia coli assessed as appearance of ruptured cell surface at 2 times MIC measured for 120 mins by transmission electron microscopy analysis; type: subcellular
Cell membrane [25] = experiment: Disruption of cell membrane in multi-drug resistant Staphylococcus aureus assessed as increase in red fluorescence intensity of PI at 2 times MIC measured for 2 hrs by fluorescence confocal microscopic imaging based analysis; type: subcellular
Cell membrane [26] = experiment: Disruption of cell membrane in multi-drug resistant Escherichia coli assessed as increase in red fluorescence intensity of PI at 2 times MIC measured for 2 hrs by fluorescence confocal microscopic imaging based analysis; type: subcellular
Escherichia coli [27] = experiment: Bactericidal activity against multi-drug resistant Escherichia coli at 1 times MIC preincubated with LPS for 1 hrs followed by bacterial addition and measured after 18 hrs by microplate reader based analysis; type: functional, organism-based; settings: time 19.0 hrs
Cell membrane [28] = experiment: Induction of outer membrane permeabilization in multi-drug resistant Escherichia coli assessed as NPN uptake at 1 to 4 times MIC measured within 1 min by fluorescence based analysis; type: subcellular
Cell membrane [29] = experiment: Induction of cytoplasmic membrane depolarization in multi-drug resistant Escherichia coli at 1 to 4 times MIC measured within 1 min by DiSC3-5 fluorescent dye based analysis
Cell membrane [30] = experiment: Induction of cytoplasmic membrane depolarization in multi-drug resistant Staphylococcus aureus at 1 to 4 times MIC measured within 1 min by DiSC3-5 fluorescent dye based analysis
Staphylococcus aureus [31] = experiment: Antibiofilm activity against multi-drug resistant Staphylococcus aureus measured after 24 hrs by crystal violet staining based analysis; type: functional, organism-based
Escherichia coli [32] = experiment: Antibiofilm activity against multi-drug resistant Escherichia coli measured after 24 hrs by crystal violet staining based analysis; type: functional, organism-based
Escherichia coli [33] = experiment: Antibiofilm activity against multi-drug resistant Escherichia coli at 0.5 times MIC measured after 24 hrs by crystal violet staining based analysis; type: functional, organism-based
Staphylococcus aureus [34] = experiment: Antibiofilm activity in methicillin-resistant Staphylococcus aureus assessed as eradication of formed biofilm by measuring reduction in viable bacterial count measured after 12 hrs by confocal microscopy based analysis; type: functional, organism-based
Escherichia coli [35] = experiment: Antibiofilm activity in […] assessed as eradication of formed biofilm by measuring reduction in viable bacterial count measured after 12 hrs by confocal microscopy based analysis; type: functional, organism-based
Staphylococcus aureus [36] = experiment: Antibiofilm activity in methicillin-resistant Staphylococcus aureus assessed as eradication of formed biofilm at 1 to 4 times MIC measured after 12 hrs by confocal microscopy based analysis; type: functional, organism-based
Escherichia coli [37] = experiment: Antibiofilm activity in […] assessed as eradication of formed biofilm at 1 to 4 times MIC measured after 12 hrs by confocal microscopy based analysis; type: functional, organism-based

In the case of `CC(C)C[C@H](NC(=O)[C@H](Cc1ccccc1)NC(=O)[C@@H]1CCCN1C(=O)[C@H](Cc1c[nH]c2ccccc12)NC(=O)[C@H](Cc1c[nH]c2ccccc12)NC(=O)[C@H](Cc1c[nH]c2ccccc12)NC(=O)[C@@H]1CCCN1C(=O)[C@H](Cc1ccccc1)NC(=O)[C@H](CCCNC(=N)N)NC(=O)[C@H](CCCNC(=N)N)NC(=O)[C@@H](N)C(C)C)C(=O)N[C@@H](CCCNC(=N)N)C(=O)N[C@@H](CCCNC(=N)N)C(=O)O`, the MIC (Staphylococcus aureus [1]) is reported as 8 µM (≈ 15.2 µg/mL), the MIC (Staphylococcus aureus [2]) is reported as 16 µM (≈ 30.4 µg/mL) and the MIC [3] is reported as 4 µM (≈ 7.61 µg/mL). The MIC (Enterococcus faecalis) was 4 µM (≈ 7.61 µg/mL), the MIC (Escherichia coli [4]) was 16 µM (≈ 30.4 µg/mL) and the MIC (Escherichia coli [5]) was 16 µM (≈ 30.4 µg/mL). The MIC (Klebsiella pneumoniae) was 256 µM (≈ 487 µg/mL), the MIC (Acinetobacter baumannii) was 32 µM (≈ 60.9 µg/mL) and the HC10 [6] was 33.13 µM. For the same compound, the “fold change (FC)” value (Escherichia coli [7]) was 2, the “fold change (FC)” value (Escherichia coli [8]) was 2 and the “fold change (FC)” value (Escherichia coli [9]) was 2. The Activity (Staphylococcus aureus [10]) was “inactive”, the half-life [11] was 1.7 h and the Activity (Escherichia coli [12]) was “inactive”. The Activity (Escherichia coli [13]) was “inactive”, the Activity (Staphylococcus aureus [14]) was “inactive” and the Activity (Staphylococcus aureus [15]) was “inactive”. The Activity (Staphylococcus aureus [16]) was 100%, the Activity (Staphylococcus aureus [17]) was “Time-dependent-effect” and the Activity (Escherichia coli [18]) was “Time-dependent-effect”. The Activity (Staphylococcus aureus [19]) was 100%, the Activity (Escherichia coli [20]) was 100% and the Activity (Cell membrane [21]) was “Active”. The Activity (Cell membrane [22]) was “Active”, the Activity (Cell membrane [23]) was “Active” and the Activity (Cell membrane [24]) was “Active”. For the same compound, the Activity (Cell membrane [25]) was “Active”, the Activity (Cell membrane [26]) was “Active” and the Activity (Escherichia coli [27]) was “inactive”. The Activity (Cell membrane [28]) was “Active”, the Activity (Cell membrane [29]) was “Active” and the Activity (Cell membrane [30]) was “Active”. The Activity (Staphylococcus aureus [31]) was “Dose-dependent-effect”, the Activity (Escherichia coli [32]) was “Dose-dependent-effect” and the Activity (Escherichia coli [33]) was “inactive”. For the same compound, the Activity (Staphylococcus aureus [34]) was “Dose-dependent-effect”, the Activity (Escherichia coli [35]) was “Dose-dependent-effect” and the Activity (Staphylococcus aureus [36]) was “Active”. For the same compound, the Activity (Escherichia coli [37]) was “Active”.
